This assay deals with T1, GR (Homo sapiens, UniProt P04150).
T1 construct: expressed in transfected cells; host or cells: CHO-K1 (CHO-K1-GR-MMTV-Luc reporter cells)
T1 sequence (P04150 1-777): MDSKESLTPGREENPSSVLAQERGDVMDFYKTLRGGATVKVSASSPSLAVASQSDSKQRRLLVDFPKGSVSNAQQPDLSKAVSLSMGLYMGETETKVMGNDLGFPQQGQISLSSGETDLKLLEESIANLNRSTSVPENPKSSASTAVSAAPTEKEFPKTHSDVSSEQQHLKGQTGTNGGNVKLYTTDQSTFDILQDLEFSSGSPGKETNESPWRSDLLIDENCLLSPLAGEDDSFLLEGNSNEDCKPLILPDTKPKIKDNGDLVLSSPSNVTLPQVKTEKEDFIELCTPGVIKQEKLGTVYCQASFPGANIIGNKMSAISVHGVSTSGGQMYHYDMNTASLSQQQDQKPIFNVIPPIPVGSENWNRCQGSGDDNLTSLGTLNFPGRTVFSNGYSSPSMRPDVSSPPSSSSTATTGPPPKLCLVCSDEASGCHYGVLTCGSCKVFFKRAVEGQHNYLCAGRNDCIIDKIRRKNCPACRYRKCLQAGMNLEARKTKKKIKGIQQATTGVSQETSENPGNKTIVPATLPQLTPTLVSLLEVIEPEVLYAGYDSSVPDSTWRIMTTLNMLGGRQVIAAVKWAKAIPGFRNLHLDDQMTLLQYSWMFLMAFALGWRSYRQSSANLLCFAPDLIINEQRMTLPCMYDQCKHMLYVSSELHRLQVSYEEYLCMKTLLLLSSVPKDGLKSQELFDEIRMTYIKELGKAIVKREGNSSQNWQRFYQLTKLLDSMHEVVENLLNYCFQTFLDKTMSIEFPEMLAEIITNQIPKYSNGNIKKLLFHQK
Put plainly: In Vitro GR Luciferase Reporter Assay (antagonist assay). Type of assay: cell-based. Particulars: CHO-K1-GR-MMTV-Luc reporter cells, 10 nM Dexamethasone, 18-24 hours. The procedure:
Example A: In Vitro GR Luciferase Reporter Assay
Cell Line: CHO-K1-GR-MMTV-Luc reporter cells
Culture Media: DMEM (with phenol red)+10% FBS
Assay Media: DMEM (without phenol red)+10% CSS
Culture CHO-K1-GR-MMTV-Luc reporter cells in T175 flasks in Culture Media at conditions less than 90% confluence.
Using Bravo (Agilent) liquid handler:
200× DMSO 1:3 serial dilutions of control and test compounds in 96-well non-sterile V bottom plate in DMSO, 12 points for each compound were prepared.
Prepared 5× compound serial dilutions: Add 97.5 μL/well of Assay Media into 96-well non-sterile V bottom plate then added 2.5 ul of 200× concentration of compounds and mix well.
Seeded cells for Antagonist Assay: 5200 CHO-K1-GR-MMTV-Luc reporter cells were seeded in Greiner #781080 flat clear bottom 384-well white TC plate in 20 ul of Assay Media containing 12.5 nM Dexamethasone (final concentration=10 nM).
Added compounds: 5 μl of 5× compounds were added to appropriate wells and followed with a quick spin (1000 rpm, 10 sec) to bring media and cells to the bottom of plate. The plates were covered with SealMate film to avoid evaporation and placed in 37° C. incubator for approximately 18-24 hours.
Read plates: Equilibrate appropriate amount of Promega OneGlo luciferase reagent to room temperature. Remove the plates from incubator and add 25 uL of OneGlo reagent/well by Bravo and read the plates on Tecan Spark plate reader within 15 minutes.
The ability of the compounds disclosed herein to inhibit GR activity was quantified and the respective IC50 value was determined. Table 1 provides the cellular IC50 values of compounds disclosed herein.

Where only a bound is given, the exact number is not on record here.

`C[C@H]([C@H]1CCC2=Cc3c(cnn3-c3ccc(F)cc3)C[C@]2(C(=O)c2ncc(C(F)(F)F)s2)C1)S(=O)(=O)c1cnn(C)c1` (single isomer, unassigned) [Example 9, ((4aR,6S)-1-(4-Fluorophenyl)-6-((R)-1-((1-methyl-1H-pyrazol-4-yl)sulfonyl)ethyl)-1,4,5,6,7,8-hexahydro-4aH-benzo[f]indazol-4a-yl)(5-(trifluoromethyl)thiazol-2-yl)methanone or ((4aR,6S)-1-(4-fluorophenyl)-6-((S)-1-((1-methyl-1H-pyrazol-4-yl)sulfonyl)ethyl)-1,4,5,6,7,8-hexahydro-4aH-benzo[f]indazol-4a-yl)(5-(trifluoromethyl)thiazol-2-yl)methanone] gave an IC50 of at most 100 nM.
With `C[C@@H]([C@H]1CCC2=Cc3c(cnn3-c3ccc(F)cc3)C[C@]2(C(=O)c2ncc(C(F)(F)F)s2)C1)S(=O)(=O)c1cnn(C)c1` (single isomer, unassigned) [Example 10, ((4aR,6S)-1-(4-Fluorophenyl)-6-((R)-1-((1-methyl-1H-pyrazol-4-yl)sulfonyl)ethyl)-1,4,5,6,7,8-hexahydro-4aH-benzo[f]indazol-4a-yl)(5-(trifluoromethyl)thiazol-2-yl)methanone or ((4aR,6S)-1-(4-fluorophenyl)-6-((S)-1-((1-methyl-1H-pyrazol-4-yl)sulfonyl)ethyl)-1,4,5,6,7,8-hexahydro-4aH-benzo[f]indazol-4a-yl)(5-(trifluoromethyl)thiazol-2-yl)methanone], the IC50 was at most 100 nM.
For `Cn1cnc(S(=O)(=O)N(C2CC2)[C@H]2CCC3=Cc4c(cnn4-c4ccc(F)cc4)C[C@]3(C(=O)c3ncc(C(C)(C)C)s3)C2)c1` [Example 1, N-((4aS,6S)-4a-(5-(tert-Butyl)thiazole-2-carbonyl)-1-(4-fluorophenyl)-4,4a,5,6,7,8-hexahydro-1H-benzo[f]indazol-6-yl)-N-cyclopropyl-1-methyl-1H-imidazole-4-sulfonamide] the value was at most 100 nM.
In turn, `Cn1cnc(S(=O)(=O)N(C2CC2)[C@H]2CCC3=Cc4c(cnn4-c4ccc(F)cc4)C[C@]3(C(=O)c3cc(F)ccn3)C2)c1` [Example 2, N-Cyclopropyl-N-((4aS,6S)-1-(4-fluorophenyl)-4a-(4-fluoropicolinoyl)-4,4a,5,6,7,8-hexahydro-1H-benzo[f]indazol-6-yl)-1-methyl-1H-imidazole-4-sulfonamide] had an IC50 of at most 100 nM.
The same measure for `Cn1cc(S(=O)(=O)N(C2CC2)[C@H]2CCC3=Cc4c(cnn4-c4ccc(F)nc4)C[C@]3(C(=O)c3cc(F)ccn3)C2)cn1` [Example 3, N-Cyclopropyl-N-((4aS,6S)-4a-(4-fluoropicolinoyl)-1-(6-fluoropyridin-3-yl)-4,4a,5,6,7,8-hexahydro-1H-benzo[f]indazol-6-yl)-1-methyl-1H-pyrazole-4-sulfonamide]: at most 100 nM; for `Cn1cnc(S(=O)(=O)N(CC(F)(F)F)[C@H]2CCC3=Cc4c(cnn4-c4ccc(F)cc4)C[C@]3(C(=O)c3cc(F)ccn3)C2)n1` [Example 4, N-((4aS,6S)-1-(4-Fluorophenyl)-4a-(4-fluoropicolinoyl)-4,4a,5,6,7,8-hexahydro-1H-benzo[f]indazol-6-yl)-1-methyl-N-(2,2,2-trifluoroethyl)-1H-1,2,4-triazole-3-sulfonamide]: at most 100 nM; for `Cn1cc(S(=O)(=O)N(CCF)[C@H]2CCC3=Cc4c(cnn4-c4ccc(F)cc4)C[C@]3(C(=O)c3cc(F)ccn3)C2)cn1` [Example 5, N-(2-Fluoroethyl)-N-((4aS,6S)-1-(4-fluorophenyl)-4a-(4-fluoropicolinoyl)-4,4a,5,6,7,8-hexahydro-1H-benzo[f]indazol-6-yl)-1-methyl-1H-pyrazole-4-sulfonamide]: at most 100 nM.
The compound `CC(C)N([C@H]1CCC2=Cc3c(cnn3-c3ccc(F)cn3)C[C@]2(C(=O)c2cc(C(F)(F)F)ccn2)C1)S(=O)(=O)c1cnn(C)c1` [Example 6, N-((4aS,6S)-1-(5-Fluoropyridin-2-yl)-4a-(4-(trifluoromethyl)picolinoyl)-4,4a,5,6,7,8-hexahydro-1H-benzo[f]indazol-6-yl)-N-isopropyl-1-methyl-1H-pyrazole-4-sulfonamide] came in with a half-inhibitory concentration (IC50) of at most 100 nM.
In turn, `Cn1cnc(S(=O)(=O)[C@H]2CCC3=Cc4c(cnn4-c4ccc(F)cc4)C[C@]3(C(=O)c3ccc(C4CC4)cn3)C2)n1` [Example 7, (5-Cyclopropylpyridin-2-yl)((4aS,6S)-1-(4-fluorophenyl)-6-((1-methyl-1H-1,2,4-triazol-3-yl)sulfonyl)-1,4,5,6,7,8-hexahydro-4aH-benzo[f]indazol-4a-yl)methanone] had a 50% inhibitory concentration (IC50) of at most 100 nM.
Compound `Cn1ccc(S(=O)(=O)C(C)(C)[C@H]2CCC3=Cc4c(cnn4-c4ccc(F)cc4)C[C@]3(C(=O)c3cc(F)ccn3)C2)n1` [Example 8, ((4aR,6S)-1-(4-Fluorophenyl)-6-(2-((1-methyl-1H-pyrazol-3-yl)sulfonyl)propan-2-yl)-1,4,5,6,7,8-hexahydro-4aH-benzo[f]indazol-4a-yl)(4-fluoropyridin-2-yl)methanone] came in with a half-maximal inhibitory concentration (IC50) of at most 100 nM.
In turn, `Cn1cnc(S(=O)(=O)N(C2CC2)[C@H]2CCC3=Cc4c(cnn4-c4ccc(F)nc4)C[C@]3(C(=O)c3cc(C(F)(F)F)ccn3)C2)n1` [Example 11, N-cyclopropyl-N-((4aS,6S)-1-(6-fluoropyridin-3-yl)-4a-(4-(trifluoromethyl)picolinoyl)-4,4a,5,6,7,8-hexahydro-1H-benzo[f]indazol-6-yl)-1-methyl-1H-1,2,4-triazole-3-sulfonamide] showed a 50% inhibitory concentration (IC50) of at most 100 nM.
`Cn1cc(S(=O)(=O)N(CC(F)F)[C@H]2CCC3=Cc4c(cnn4-c4ccc(F)cc4)C[C@]3(C(=O)c3ncc(C(F)(F)F)s3)C2)cn1` [Example 12]: the IC50 is at most 100 nM.
`Cn1cc(S(=O)(=O)N(C2CC(F)(F)C2)[C@H]2CCC3=Cc4c(cnn4-c4ccc(F)cc4)C[C@]3(C(=O)c3cc(Cl)ccn3)C2)cn1` [Example 13] gave a half-maximal inhibitory concentration (IC50) of at most 100 nM.
In turn, `Cn1cnc(S(=O)(=O)N([C@H]2CCC3=Cc4c(cnn4-c4ccc(F)cc4)C[C@]3(C(=O)c3ncc(C(F)(F)F)s3)C2)[C@H]2C[C@@H](C#N)C2)n1` [Example 14] had an IC50 of at most 100 nM.
For `Cn1cc(S(=O)(=O)C[C@H]2CCC3=Cc4c(cnn4-c4ccc(F)cc4)C[C@]3(C(=O)c3cc(F)ccn3)C2)cn1` [Example 15] the value was at most 100 nM; for `Cn1cc(S(=O)(=O)N(C2CC2)[C@H]2CCC3=Cc4c(cnn4-c4ccc(F)nc4)C[C@]3(C(=O)c3ncc(C(F)(F)F)s3)C2)cn1` [Example 16], at most 100 nM.
For `Cn1ncnc1S(=O)(=O)[C@H]1CCC2=Cc3c(cnn3-c3ccc(F)cc3)C[C@]2(C(=O)c2cc(C(F)(F)F)ccn2)C1` [Example 17] the value was at most 100 nM.
Turning to `Cn1cc(S(=O)(=O)N(C2CC2)[C@H]2CCC3=Cc4c(cnn4-c4ccc(F)nc4)C[C@]3(C(=O)c3cc(C(F)(F)F)ccn3)C2)cn1` [Example 18], the 50% inhibitory concentration (IC50) is at most 100 nM.
The compound `O=C(c1cc(C(F)(F)F)ccn1)[C@]12Cc3cnn(-c4ccc(F)nc4)c3C=C1CC[C@H](N(C1CC1)S(=O)(=O)c1ccc(F)cc1)C2` [Example 19] yielded an IC50 of at most 100 nM.
In the case of `CN(C)C(=O)CN([C@H]1CCC2=Cc3c(cnn3-c3ccc(F)cc3)C[C@]2(C(=O)c2cc(C(F)(F)F)ccn2)C1)S(=O)(=O)c1ccn(C)n1` [Example 21], the IC50 is at most 100 nM.
In turn, `Cn1cnc(S(=O)(=O)N(C2CC2)[C@H]2CCC3=Cc4c(cnn4-c4ccc(F)cc4)C[C@]3(C(=O)c3csc(C(F)(F)F)n3)C2)n1` [Example 22] yielded an IC50 of at most 100 nM.
The compound `O=C(c1cc(F)ccn1)[C@]12Cc3cnn(-c4ccc(F)cc4)c3C=C1CC[C@H](N(C1CC(F)(F)C1)S(=O)(=O)c1ccc(F)cc1)C2` [Example 23] displayed a concentration for half-maximal inhibition (IC50) of at most 100 nM.
In turn, `O=C(c1cc(Cl)ccn1)[C@]12Cc3cnn(-c4ccc(F)cc4)c3C=C1CC[C@H](N(C1CC(F)(F)C1)S(=O)(=O)c1ccc(F)cc1)C2` [Example 24] came in with an IC50 of at most 100 nM.
